Assay results: US20150305334A1, “USE OF SUBSTITUTED 1-(ARYL ETHYNYL)-, 1-(HETEROARYL ETHYNYL)-, 1-(HETEROCYCLYL ETHYNYL)- AND 1-(CYCLOALKENYL ETHYNYL)-CYCLOHEXANOLS AS ACTIVE AGENTS AGAINST ABIOTIC PLANT STRESS” (BAYER CROPSCIENCE AG, priority 2012, published 2015)

Columns and labels:
Assay type in all cases: in vivo
Brassica napus = experiment: Drought stress test on greenhouse crop plants, spray application, efficacy vs untreated stressed control (BRSNS); conditions: dosage 250 g/ha
Procedure: (§1) Seeds of monocotyledonous and dicotyledonous crop plants were laid out in sandy loam in wood-fiber pots, covered with soil or sand and cultivated in a greenhouse under good growth conditions. The test plants were treated at the early leaf stage (BBCH10-BBCH13). To assure uniform water supply before commencement of stress, the potted plants were supplied with water by dam irrigation prior to substance application. The compounds according to the invention, formulated in the form of wettable powders (WP), were sprayed onto the green parts of the plants as an aqueous suspension at an equivalent water application rate of 600 l/ha with addition of 0.2% wetting agent (e.g. agrotin). Substance application was followed immediately by stress treatment of the plants. For this purpose, the pots were transferred into plastic inserts in order to prevent them from subsequently drying out too quickly. […] After the recovery phase had ended, the intensities of damage were analyzed in visual comparison to untreated, unstressed controls of the same age. The intensity of damage was first recorded as a percentage (100%=plants have died, 0%=like control plants). […] EF: efficacy (%) DVus: damage value of the untreated, stressed control DVts: damage value of the plants treated with test compound In each trial, 3 pots per crop and dosage were treated and evaluated; the resulting efficacies are thus averages. […]

Triticum aestivum = experiment: Drought stress test on greenhouse crop plants, spray application, efficacy vs untreated stressed control (TRZAS); conditions: dosage 25 g/ha
Procedure: as §1

Zea mays = experiment: Drought stress test on greenhouse crop plants, spray application, efficacy vs untreated stressed control (ZEAMX); conditions: dosage 25 g/ha
Procedure: as §1

Compound	EF (BRSNS) (Brassica napus) [%]	EF (TRZAS) (Triticum aestivum) [%]	EF (ZEAMX) (Zea mays) [%]
CC1CCCC(C)(C)C1(O)C#Cc1ccccc1C(=O)O (centres unmarked) [I.1-107, 2-[(1-Hydroxy-2,2,6-trimethylcyclohexyl)ethynyl]benzoic acid]	>5	–	–
COC(=O)c1ccccc1C#CC1(O)C(C)CCCC1(C)C (centres unmarked) [I.1-116, Methyl 2-[(1-hydroxy-2,2,6-trimethylcyclohexyl)ethynyl]benzoate]	>5	>5	>5
COC(=O)c1ccccc1C#CC1(O)C(C)CCCC1C (centres unmarked) [I.13-116, Methyl 2-[(1-hydroxy-2,6-dimethylcyclohexyl)ethynyl]benzoate]	–	–	>5
